We go through 18 compounds from article PMC10644722, “Discovery of inhibitors of protein tyrosine phosphatase 1B contained in a natural products library from Mexican medicinal plants and fungi using a combination of enzymatic and in silico methods**” (Frontiers in Pharmacology, 2023).

“And” between values parts separate entries of the source, which are not always exact repeats. Identical values can stand only once. “Also recorded” adds a separate entry of the source. Like-named read-outs stand apart in the source and are kept apart here.

Assay [1] concerns the target T1, PTP1B (Homo sapiens, UniProt P18031).
T1 sequence (P18031 1-400): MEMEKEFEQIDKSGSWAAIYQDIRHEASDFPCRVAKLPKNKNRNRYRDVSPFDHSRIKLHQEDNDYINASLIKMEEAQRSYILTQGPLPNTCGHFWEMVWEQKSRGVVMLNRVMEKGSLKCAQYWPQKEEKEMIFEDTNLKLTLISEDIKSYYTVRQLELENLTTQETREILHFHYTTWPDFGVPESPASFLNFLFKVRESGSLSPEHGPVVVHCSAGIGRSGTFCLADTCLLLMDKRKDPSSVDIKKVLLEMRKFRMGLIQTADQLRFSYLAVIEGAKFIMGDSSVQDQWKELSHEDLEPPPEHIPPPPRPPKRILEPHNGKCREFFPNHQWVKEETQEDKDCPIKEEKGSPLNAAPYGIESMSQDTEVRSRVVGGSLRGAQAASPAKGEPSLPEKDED
Nature of the assay: Kinetic analysis of PTP1B inhibition. Type of assay: biochemical. The conditions noted are these: for type of inhibition: double-reciprocal plots, global nonlinear fit; for VMAX: maximum velocity, nonlinear fit, substrate 4-NP. The protocol:
The conditions for preparing reagents (enzyme and substrate), incubation, and analysis of results were the same as that described in Section 2.1 ([Jiménez-Arreola et al., 2020]; [Díaz-Rojas et al., 2021]). Additional steps in the methodology are described below.
To characterize the type of inhibition exerted by 1, 3, and 6 on PTP1B, the hydrolysis of 4-NP at the sub-saturating state and increasing concentrations of each compound was measured. […] The compound concentration yielding 50% activity inhibition was interpolated from the results by fitting into a general inhibition model. The resulting set of activities was fitted globally using the non-linear regression algorithm of Levenberg–Marquardt as implemented in the Gnuplot ([Williams et al., 2017]). Each group was fitted to the kinetic equations for linear competitive, linear uncompetitive, linear non-competitive (classic), linear mixed type, parabolic competitive, parabolic uncompetitive, and parabolic non-competitive inhibition mechanisms. The best fit was ascertained by the reduced chi-squared (χ^2) value, residual distribution, and uncertainty in the parameter estimates. The best description of the inhibition data for compounds 1, 3, and 6 was obtained with Eq. 2, Eq. 3, and Eq. 4, respectively, where VMAX, KM, and KIcu, KIC, and KIU are the maximum velocity, Michaelis constant for the substrate 4-NP, and inhibition constants for each type of inhibition, respectively. v0=VMAX4NP/KM1+I/KIcu+4NP1+I/KIcu, (2) v0=VMAX4NP/KM1+I/KIC+4NP1+I/KIU, (3) v0=VMAX4NP/KM1+I/KIC+I^2/KIC2^2+4NP. (4)

Assay [2] deals with T2, hPTP1B1-400 (Homo sapiens, UniProt P18031).
T2 sequence (P18031 1-400): T1 sequence (P18031 1-400)
Nature of the assay: PTP1B inhibition assay (spectrophotometric, 4-nitrophenyl phosphate). Type of assay: biochemical. The conditions noted are these: for ΔA, activity difference between UA and the compound: absolute pIC50 difference against ursolic acid. The protocol:
The inhibitory activity was determined as a percentage compared to the blank (Buffer) according to the following equation: %InhibitionPTP1B=1−A405s/A405b×100%, (1) where A405(s) is the ΔA of the sample (At20 − At0), A405(b) is the ΔA of the blank obtained in the same manner as that of the sample. Using the data obtained, the enzyme inhibition curve was plotted, for which the average percentage of inhibition was plotted as a function of the inhibitor concentration.

In assay [3] the test system is PTP1B. More on the design: method as in Lantz et al., 2010; Kumar et al., 2020. The conditions noted are these: known inhibitors of PTP1B; ref Lantz et al., 2010; Kumar et al., 2020; cited from earlier work.
The mark [4] stands for this setting: DoseResp model fit, Origin 8.0, axis C (mM), read-out: LOGx0 of the IC50 curve.
Where [5] appears, read: enzyme 66 nM, 4-NP 0.125 mM, Tris-HCl pH 6.8, 20 min, room temperature, read-out: IC50.
[6] abbreviates: negative log of the IC50 in Molar, read-out: pIC50 (converted).
Where [7] appears, read: negative log of the IC50 in Molar.
[8] abbreviates: Hill1 model fit, Origin 8.0, axis C (mM), read-out: k of the IC50 curve.

On to `COc1c(O)cc2ccc3cccc(O)c3c2c1OC` [Compound 3, 3,4-Dimethoxy-2,5-phenanthrenediol], for which the type of inhibition result in assay [1] is listed as “mixed-type; also recorded: mixed inhibitor”. This compound also displayed a VMAX in assay [1] of 56.1 mM/min. In addition, the Ki in assay [1] (mixed type (Eq. 3) or parabolic competitive model (Eq. 4), read-out: KIC) is 40 µM; in assay [1] (mixed type model (Eq. 3), read-out: KIU) it was 110 µM. Also, the “%I” value in assay [2] (0.02 mM compound) came out at 70.62 ± 0.58%; in assay [2] (1 mM compound) it was 97.4 ± 0.69%. The IC50 in assay [2] (setting [4]) was 0.0477 ± 0.0982 mM; in assay [2] (setting [5]) it was 0.0477 ± 0.0001 mM; in assay [2] (setting [6]) it was 0.0479 mM. Also, the “ΔA, activity difference between UA and the compound” value in assay [2] is 0.34 and 0.3.

Turning to `C[C@H]1C(=O)CC[C@@H]2[C@]1(C)CC[C@H]1[C@@]2(C)CC[C@@]2(C)[C@@H]3CC(C)(C)CC[C@]3(CO)CC[C@]12C` [Compound 1, Canophyllol], the type of inhibition entry in assay [1] is given as “non-competitive inhibitor”. In assay [1], this compound came in with a VMAX of 44.1 mM/min. Further, the Ki in assay [1] (non-competitive model (Eq. 2), read-out: KIcu) is 9 µM. Also, the “%I” value in assay [2] (0.02 mM compound) is on record as 95.54 ± 1.82%; in assay [2] (1 mM compound), 98.59 ± 0.28%. The IC50 in assay [2] (setting [4]) was 0.0332 ± 0.00257 mM; in assay [2] (setting [5]), 0.0332 ± 3e-06 mM; in assay [2] (setting [6]) it was 0.0331 mM. In addition, the “ΔA, activity difference between UA and the compound” value in assay [2] is recorded as 0.2.

For the compound 7-Methylluteolin [Compound 50], the figures for the IC50 in assay [2] (setting [4]) and in assay [2] (setting [5]) were 0.435 ± 0.00856 mM and 0.4349 ± 8e-06 mM, respectively. In assay [2], the “ΔA, activity difference between UA and the compound” value was determined as 1.3. In addition, the pIC50 (commonly the negative decadic logarithm of the IC50, by convention in mol/L) in assay [2] (setting [7]) turned out to be 3.36.

As for `Cc1cc(-c2c3ccccc3c(Br)c3sc(C)c(C)c23)cc(C)c1O[C@H](Cc1ccccc1)C(=O)O` [E, ertiprotafib], in assay [3], the pIC50 is 4.70.

As for `CC1(C)C=Cc2cc3ccc(=O)oc3cc2O1` [Compound 93, Xanthyletin], the IC50 is 0.865 ± 0.148 mM in assay [2] (setting [8]), 0.8646 ± 0.00015 mM in assay [2] (setting [5]) and 0.871 mM in assay [2] (setting [6]). Moreover, in assay [2], the “ΔA, activity difference between UA and the compound” value is 1.6.

In the case of `CC(C)[C@@H](CC[C@@H](C)[C@H]1CC[C@H]2[C@@H]3[C@H](O)C[C@H]4C[C@@H](NCCCNCCCCNCCCN)CC[C@]4(C)[C@H]3CC[C@]12C)OS(=O)(=O)O` [T, trodusquemine], in assay [3], the pIC50 is listed as 6.0.

Regarding `CC[C@H](/C=C/[C@@H](C)[C@H]1CC[C@H]2C3=CC[C@H]4C[C@@H](OC(C)=O)CC[C@]4(C)[C@H]3CC[C@]12C)C(C)C` [Compound 85, α-Spinasterol acetate], the IC50 is 0.2772 ± 1e-05 mM in assay [2] (IC50 (μM), enzyme 66 nM, 4-NP 0.125 mM, Tris-HCl pH 6.8, 20 min, room temperature); 0.277 ± 0.0114 mM in assay [2] (LOGx0 of the IC50 curve, DoseResp model fit, Origin 8.0, axis C (mM)); 0.275 mM in assay [2] (pIC50, negative log of the IC50 in Molar). Moreover, in assay [2], the “ΔA, activity difference between UA and the compound” value is reported as 1.1.

On to `C=C(C)[C@H]1COc2c(C)cc3oc4c(C[C@H](O)C(C)(C)O)ccc(O)c4c(=O)c3c2[C@@H]1O` [Compound 7, Tajixanthone hydrate], for which the IC50 in assay [2] (setting [4]) is 0.0832 ± 0.00124 mM; in assay [2] (setting [5]), 0.0832 ± 1e-06 mM; in assay [2] (setting [6]), 0.0832 mM. Besides, in assay [2], the “ΔA, activity difference between UA and the compound” value is on record as 0.6.

Turning to `COC(=O)/C(C)=C\CC[C@H](C)[C@@H]1CC[C@]2(C)C3=CCC4C(C)(C)C(=O)CC[C@]4(C)C3CC[C@@]12C` (some centres unmarked) [Compound 86, Methyl ester of masticadienonic acid], the IC50 was 0.325 ± 0.00894 mM in assay [2] (setting [4]), 0.3245 ± 1e-06 mM in assay [2] (setting [5]) and 0.324 mM in assay [2] (setting [6]). In addition, the “ΔA, activity difference between UA and the compound” value in assay [2] came to 1.2.

Consider `COc1cc(O[C@@H]2O[C@H](CO[C@@H]3OCC(O)(CO)[C@H]3O)[C@@H](O)[C@H](O)[C@H]2O)c2c(-c3ccc(O)c(O)c3)cc(=O)oc2c1` (stereo partly drawn) [Compound 73, 5-O-β-D-Apiofuranosyl-(1→6)-β-D-glucopyranosyl-7-metoxi-3'-4'-dihydroxy-4-phenylcoumarin], for which the IC50 turned out to be 0.359 ± 0.0682 mM in assay [2] (setting [4]) and 0.3586 ± 7e-05 mM in assay [2] (setting [5]). For the same compound, the “ΔA, activity difference between UA and the compound” value in assay [2] is 1.2. The compound also yielded a pIC50 in assay [2] (setting [7]) of 3.45.

For 5,7-Diacetylchrysin [Compound 54], the IC50 in assay [2] (setting [8]) stood at 0.362 ± 0.0378 mM; in assay [2] (setting [5]) it was 0.3618 ± 4e-05 mM. For the same compound, the “ΔA, activity difference between UA and the compound” value in assay [2] was determined as 1.2. In assay [2] (setting [7]), this compound had a pIC50 of 3.44.

With `COc1cc(-c2cc(=O)c3c(O)c(O)c(OC)cc3o2)ccc1O` [Compound 5, 4',5,6-Trihydroxy-3',7-dimethoxyflavone], the IC50 was 0.0573 ± 0.0213 mM in assay [2] (setting [4]), 0.0573 ± 2e-05 mM in assay [2] (setting [5]) and 0.0575 mM in assay [2] (setting [6]). The “ΔA, activity difference between UA and the compound” value in assay [2] was 0.42 and 0.4.

Consider `CC(=O)OC[C@H]1O[C@@H](Oc2cc(O)cc3oc(=O)cc(-c4ccc(O)c(O)c4)c23)[C@H](O)[C@@H](O)[C@H]1O` [Compound 67, 6''-O-acetyl-5-O-β-D-galactopyranosyl-7,3',4'-trihydroxy-4-phenylcoumarin], for which the IC50 in assay [2] (setting [4]) was determined as 0.254 ± 0.203 mM; in assay [2] (setting [5]) it was 0.2543 ± 0.0002 mM. The “ΔA, activity difference between UA and the compound” value in assay [2] amounted to 1.1. Moreover, the pIC50 in assay [2] (setting [7]) amounted to 3.59.

On to `O=C(OCC1OC(Oc2c(-c3ccc(O)c(O)c3)oc3cc(O)cc(O)c3c2=O)C(O)C(O)C1O)c1ccccc1` [Compound 8, Quercetin-3-O-(6''-benzoyl)-β-D-galactoside], for which the IC50 in assay [2] (setting [4]) is 0.0888 ± 0.0504 mM; in assay [2] (setting [5]), 0.0888 ± 5e-05 mM; in assay [2] (setting [6]), 0.0891 mM. Besides, the “ΔA, activity difference between UA and the compound” value in assay [2] came out at 0.6.

With `C/C(=C/CC[C@H](C)[C@@H]1CC[C@]2(C)C3=CC[C@H]4C(C)(C)[C@H](O)CC[C@]4(C)[C@H]3CC[C@@]12C)C(=O)O` [Compound 49, 3α-Hydroxymasticadienonic acid], the IC50 in assay [2] (setting [4]) came to 0.151 ± 0.0053 mM; in assay [2] (setting [5]) it was 0.1507 ± 5e-06 mM. Moreover, in assay [2], the “ΔA, activity difference between UA and the compound” value was 0.8. Moreover, the pIC50 in assay [2] (setting [7]) is 3.82.

Take `CC(=O)OCC(C)C1CCC2(C)C1CCC1(C)C2CCC2C3(C)CCCC(C)(C)C3CCC21C` (stereo not drawn) [Compound 90, 21-α-H-Hopane acetate]: the IC50 is 0.884 ± 0.213 mM in assay [2] (setting [8]), 0.8839 ± 0.0002 mM in assay [2] (setting [5]) and 0.891 mM in assay [2] (setting [6]). The “ΔA, activity difference between UA and the compound” value in assay [2] is 1.6 and 1.61.

For Calein A [Compound 46], the IC50 stood at 0.234 ± 0.0196 mM in assay [2] (setting [4]) and 0.2345 ± 2e-05 mM in assay [2] (setting [5]). The “ΔA, activity difference between UA and the compound” value in assay [2] is reported as 1.0. Besides, the pIC50 in assay [2] (setting [7]) amounted to 3.63.

As for `COc1cc(C)c2c(=O)c3c(O)cc(OC)cc3oc2c1` [Compound 9, Lichexanthone], the IC50 was 0.0888 ± 0.00531 mM in assay [2] (setting [4]), 0.0888 ± 5e-06 mM in assay [2] (setting [5]) and 0.0891 mM in assay [2] (setting [6]). Moreover, the “ΔA, activity difference between UA and the compound” value in assay [2] came out at 0.6.
